Measurements from ChEMBL document CHEMBL3352777, “Substituted thieno[2,3-b]thiophenes and related congeners: Synthesis, β-glucuronidase inhibition activity, crystal structure, and POM analyses” (Bioorg Med Chem, 2014).

Experiments:
[1] = target: Carbonic anhydrase (Homo sapiens) (UniProt P00918+P43166+P00915+P07451+P23280+O43570+Q9ULX7+Q16790+P22748+Q8N1Q1+Q9Y2D0+P35218); test: Inhibition of carbonic anhydrase (unknown origin) at 500 uM; format: protein assay
Homo sapiens = species on record: Homo sapiens; test: Inhibition of alpha-chymotrypsin (unknown origin) using N-succinyl-L-phenylalanine-p-nitroanilide substrate at 500 uM
cells = settings: Homo sapiens, PC-3, 48 h
Description: Cytotoxic activity against human PC3 cells after 48 hrs by MTT assay

[2] = Inhibition of buttermilk xanthine oxidase (unknown origin) at 500 uM incubated for 10 mins by spectrophotometry
Carbonic anhydrase = test: Inhibition of carbonic anhydrase (unknown origin); format: protein assay, Homo sapiens
[3] = Inhibition of alpha-chymotrypsin (unknown origin) using N-succinyl-L-phenylalanine-p-nitroanilide substrate; set-up: species or system Homo sapiens
[4] = Inhibition of buttermilk xanthine oxidase (unknown origin) incubated for 10 mins by spectrophotometry
[5] = target: T1, Beta-glucuronidase (Homo sapiens) (UniProt P08236); test: Inhibition of beta-glucuronidase (unknown origin) at 500 uM using p-nitrophenyl-beta-D-glucuronide substrate incubated for 30 mins by spectrophotometry
T1 sequence (whole entry): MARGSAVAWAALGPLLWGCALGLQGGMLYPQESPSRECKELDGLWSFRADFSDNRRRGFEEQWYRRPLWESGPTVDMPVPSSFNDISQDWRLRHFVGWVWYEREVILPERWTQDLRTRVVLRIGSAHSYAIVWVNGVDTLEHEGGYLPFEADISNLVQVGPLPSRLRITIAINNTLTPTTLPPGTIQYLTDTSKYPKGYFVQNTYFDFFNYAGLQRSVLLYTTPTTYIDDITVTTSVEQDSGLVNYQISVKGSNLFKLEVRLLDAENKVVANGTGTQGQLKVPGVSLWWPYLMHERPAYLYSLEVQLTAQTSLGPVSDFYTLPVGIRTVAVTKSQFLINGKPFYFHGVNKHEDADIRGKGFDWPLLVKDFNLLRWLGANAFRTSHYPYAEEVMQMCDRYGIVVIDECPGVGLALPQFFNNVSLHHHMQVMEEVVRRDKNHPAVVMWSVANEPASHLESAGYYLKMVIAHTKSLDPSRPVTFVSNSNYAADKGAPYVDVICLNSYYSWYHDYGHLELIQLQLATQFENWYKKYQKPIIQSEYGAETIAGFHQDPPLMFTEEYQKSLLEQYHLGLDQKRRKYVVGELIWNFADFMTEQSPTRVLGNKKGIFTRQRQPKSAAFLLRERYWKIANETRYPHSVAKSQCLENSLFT

Row | Structure (SMILES) | inhibition [1] [%] | inhibition (Homo sapiens) [%] | IC50 (cells) [µM] | also measured
1 | Cc1c(C(=O)/C(C=O)=N/Nc2ccccc2)sc2sc(C(=O)/C(C=O)=N/Nc3ccccc3)c(-c3ccccc3)c12 | < 50 | < 50 | 13.8 | inhibition [2]: < 50%
2 | CC(=O)c1ccc(-c2sc3sc(-c4ccc(C(C)=O)c(C)n4)c(-c4ccccc4)c3c2C)nc1C | < 50 | – | > 30 | –
3 | Cc1c(-c2ccc(C#N)c(=O)[nH]2)sc2sc(-c3ccc(C#N)c(=O)[nH]3)c(-c3ccccc3)c12 | – | – | – | IC50 (Carbonic anhydrase): 270.13 µM; inhibition [2]: < 50%
4 | Cc1c(-c2ccc(C(=O)O)c(=O)[nH]2)sc2sc(-c3ccc(C(=O)O)c(=O)[nH]3)c(-c3ccccc3)c12 | < 50 | < 50 | > 30 | inhibition [2]: < 50%
5 | CCOc1nc(-c2sc3sc(-c4ccc(C#N)c(OCC)n4)c(-c4ccccc4)c3c2C)ccc1C#N | < 50 | < 50 | > 30 | IC50 [4]: 14.4 µM
6 | CC(C)C[C@H](NC(=O)[C@@H](NC(=O)N[C@@H](Cc1ccccc1)C(=O)O)C1CCNC(=N)N1)C(=O)N[C@H](C=O)Cc1ccccc1 (stereo partly drawn) [CHYMOSTATIN] | – | – | – | IC50 [3]: 5.7 µM
7 | COc1cccc2c1C(=O)c1c(O)c3c(c(O)c1C2=O)C[C@@](O)(C(=O)CO)C[C@@H]3O[C@H]1C[C@H](N)[C@H](O)[C@H](C)O1 [DOXORUBICIN] | – | – | 0.912 | –
8 | CCOC(=O)c1nn(-c2ccccc2)cc1C(=O)c1sc2sc(C(=O)c3cn(-c4ccccc4)nc3C(=O)OCC)c(-c3ccccc3)c2c1C | – | < 50 | > 30 | inhibition [5]: < 50%
9 | Cc1c(C(=O)c2cc(C#N)c(=N)n(-c3ccccc3)n2)sc2sc(C(=O)c3cc(C#N)c(=N)n(-c4ccccc4)n3)c(-c3ccccc3)c12 | – | – | 2.61 | –
10 | Cc1c(C(=O)c2cc(C(=O)O)c(=O)[nH]n2)sc2sc(C(=O)c3cc(C(=O)O)c(=O)[nH]n3)c(-c3ccccc3)c12 | < 50 | < 50 | > 30 | IC50 [4]: 121 µM
11 | Oc1ncnc2[nH]ncc12 [ALLOPURINOL] | – | – | – | IC50 [4]: 2 µM

Now from value to compound, other results behind:

Row | inhibition [1] [%] | inhibition (Homo sapiens) [%] | IC50 (cells) [µM] | Structure (SMILES) | also measured
12 | < 50 | < 50 | > 30 | Cc1c(C(=O)/C=C/N(C)C)sc2sc(C(=O)c3ccc(-c4sc5sc(C(=O)/C=C/N(C)C)c(-c6ccccc6)c5c4C)nc3)c(-c3ccccc3)c12 | –
13 | – | < 50 | > 30 | CC(=C(C#N)C#N)c1sc2sc(C(C)=C(C#N)C#N)c(-c3ccccc3)c2c1C | IC50 (Carbonic anhydrase): 441.72 µM; inhibition [2]: < 50%
14 | – | – | > 30 | Cc1c(C(/C=C/N(C)C)=C(C#N)C#N)sc2sc(C(/C=C/N(C)C)=C(C#N)C#N)c(-c3ccccc3)c12 | IC50 [3]: 202 µM
15 | < 50 | < 50 | > 30 | CCOC(/C=C/C(=O)c1sc2sc(C(=O)/C=C/C(OCC)(OCC)OCC)c(-c3ccccc3)c2c1C)(OCC)OCC | –
16 | < 50 | < 50 | > 30 | Cc1c(C(=O)/C=C/N(C)C)sc2sc(C(=O)/C=C/N(C)C)c(-c3ccccc3)c12 | inhibition [2]: < 50%; inhibition [5]: < 50%
17 | – | – | > 30 | Cc1c(C(=O)/C=C/NO)sc2sc(C(=O)/C=C/NO)c(-c3ccccc3)c12 | –
18 | < 50 | – | > 30 | Cc1c(/C(=C/C=C(\C#N)C(N)=O)N(C)C)sc2sc(/C(=C/C=C(\C#N)C(N)=O)N(C)C)c(-c3ccccc3)c12 | IC50 [4]: 43.1 µM
